From US20210163308A1, “COMPOSITIONS AND METHODS FOR THE MODULATION OF CYTOKINES” (GALLEON LABS LLC, priority 2018, published 2021)
Where a SMILES comes first, the peptide text is derived from it.

Legend:
[1] = test system: primary human cells; assay: Aspartame second activity profile (FIG. 47): biomarker readouts; format: cell-based
Description: (§1) Profiling was performed using the following processes:
(§2) FIG. 47 provides a second activity profile of aspartame. The key activities of aspartame include anti-proliferative to B cells (grey arrow); inflammation-related activities: decreased sTNFα and IL1α; increased MCP-1 and VCAM-1; immunomodulatory activities: increased sIL-17A, sIL-17F, sIL-6, and CD40; and tissue remodeling activities: decreased MMP9; increased MMP3, αSMA, and Col-I.

[2] = test system: B cells; assay: Aspartame second activity profile (FIG. 47): anti-proliferative activity; format: cell-based, human
Description: as §1, §2

[3] = test system: primary human cells; assay: Aspartame first activity profile (FIG. 46): biomarker readouts; format: cell-based
Description: as §1
FIG. 46 provides a first activity profile of aspartame. The key activities of aspartame include inflammation-related activities: decreased MCP-1 and SAA; increased IL-8, IL-1α and VCAM-1; immunomodulatory activities: decreased sIL-2; increased sIgG and sIL-6; modulated CD69; and tissue remodeling activities: decreased MMP-9; increased Collagen-I and tPA; modulated PAI-I.

Structure (SMILES): COC(=O)[C@H](Cc1ccccc1)NC(=O)[C@@H](N)CC(=O)O [aspartame] (H-Asp-Phe-OMe)
- CD40 ([1]; immunomodulatory activity): increased
- sIL-6 ([1]; immunomodulatory activity): increased
- sIL-17A ([1]; immunomodulatory activity): increased
- sIL-17F ([1]; immunomodulatory activity): increased
- IL1α ([1]; inflammation-related activity): decreased
- MCP-1 ([1]; inflammation-related activity): increased
- VCAM-1 ([1]; inflammation-related activity): increased
- sTNFα ([1]; inflammation-related activity): decreased
- Col-I ([1]; tissue remodeling activity): increased
- MMP3 ([1]; tissue remodeling activity): increased
- MMP9 ([1]; tissue remodeling activity): decreased
- αSMA ([1]; tissue remodeling activity): increased
- proliferation of B cells [2]: anti-proliferative
- CD69 ([3]; immunomodulatory activity): modulated
- sIL-2 ([3]; immunomodulatory activity): decreased
- sIL-6 ([3]; immunomodulatory activity): increased
- sIgG ([3]; immunomodulatory activity): increased
- IL-1α ([3]; inflammation-related activity): increased
- IL-8 ([3]; inflammation-related activity): increased
- MCP-1 ([3]; inflammation-related activity): decreased
- SAA ([3]; inflammation-related activity): decreased
- VCAM-1 ([3]; inflammation-related activity): increased
- Collagen-I ([3]; tissue remodeling activity): increased
- MMP-9 ([3]; tissue remodeling activity): decreased
- PAI-I ([3]; tissue remodeling activity): modulated
- tPA ([3]; tissue remodeling activity): increased
